Reference: BindingDB's records for doi:10.1021/jm00349a003 (1982)

molecular target: Dihydrofolate reductase (Lacticaseibacillus casei, UniProt P00381); test: Inhibitory activity against dihydrofolate reductase (DHFR) from Lactobacillus casei (expressed as log 1/Kiapp)
Sequence (P00381 whole entry): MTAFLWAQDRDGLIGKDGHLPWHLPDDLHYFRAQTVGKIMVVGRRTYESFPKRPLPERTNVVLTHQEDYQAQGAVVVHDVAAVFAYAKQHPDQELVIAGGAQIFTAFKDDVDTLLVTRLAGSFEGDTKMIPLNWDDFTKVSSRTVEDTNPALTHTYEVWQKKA

| Structure (SMILES) | Ki [nM] |
| --- | --- |
| Nc1ncc(Cc2cc(O)cc(O)c2)c(N)n1 | 417000 |
| Nc1ncc(Cc2ccccc2)c(N)n1 | 6310 |
| COCCOc1cccc(Cc2cnc(N)nc2N)c1 | 759 |
| Nc1ncc(Cc2ccc(O)c(O)c2)c(N)n1 | 1440 |
| COCCOc1ccc(Cc2cnc(N)nc2N)cc1OCCOC | 309 |
| CCCCCCOc1ccc(Cc2cnc(N)nc2N)cc1 | 1860 |
| Cc1cccc(Cc2cnc(N)nc2N)c1 | 1660 |
| Nc1ncc(Cc2cccc(F)c2)c(N)n1 | 4170 |
| Nc1ncc(Cc2ccc([N+](=O)[O-])cc2)c(N)n1 | 1000 |
| Nc1ncc(Cc2cccc(Br)c2)c(N)n1 | 589 |
| Nc1ncc(Cc2ccc(F)cc2)c(N)n1 | 2140 |
| Nc1ncc(Cc2cccc(Cl)c2)c(N)n1 | 1260 |
| Nc1ncc(Cc2ccc(Cl)cc2)c(N)n1 | 646 |
| Nc1ncc(Cc2cccc(C(F)(F)F)c2)c(N)n1 | 692 |
| COc1ccc(Cc2cnc(N)nc2N)cc1C(F)(F)F | 50 |
| Nc1ccc(Cc2cnc(N)nc2N)cc1 | 3390 |
| Nc1ncc(Cc2cc(CO)cc(CO)c2)c(N)n1 | 1860 |
| Nc1ncc(Cc2cccc(CO)c2)c(N)n1 | 2140 |

| Structure (SMILES) | Ki [nM] |
| --- | --- |
| CS(=O)(=O)Oc1cccc(Cc2cnc(N)nc2N)c1 | 1200 |
| COCCOc1ccc(Cc2cnc(N)nc2N)cc1 | 891 |
| CN(C)c1ccc(Cc2cnc(N)nc2N)cc1 | 676 |
| Nc1ncc(Cc2ccc(OC(F)(F)F)cc2)c(N)n1 | 501 |
| CCCCOCc1cccc(Cc2cnc(N)nc2N)c1 | 3240 |
| CC(=O)Nc1ccc(Cc2cnc(N)nc2N)cc1 | 891 |
| NC(=O)COc1cccc(Cc2cnc(N)nc2N)c1 | 1100 |
| Nc1ncc(Cc2cccc(I)c2)c(N)n1 | 214 |
| COCc1cccc(Cc2cnc(N)nc2N)c1 | 2290 |
| Nc1ncc(Cc2ccc(Br)cc2)c(N)n1 | 617 |
| Cc1ccc(Cc2cnc(N)nc2N)cc1 | 1480 |
| CC(=O)Nc1ccc(Cc2cnc(N)nc2N)cc1[N+](=O)[O-] | 1000 |
| CCCCOc1ccc(Cc2cnc(N)nc2N)cc1 | 427 |
| Nc1ncc(Cc2cccc(O)c2)c(N)n1 [3-(2,4-Diamino-pyrimidin-5-ylmethyl)-phenol] | 1510 |
| CCCCCCCOc1ccc(Cc2cnc(N)nc2N)cc1 [5-(4-Heptyloxy-benzyl)-pyrimidine-2,4-diamine] | 4370 |
| COCCOc1c(OC)cc(Cc2cnc(N)nc2N)cc1OC [5-[3,5-Dimethoxy-4-(2-methoxy-ethoxy)-benzyl]-pyrimidine-2,4-diamine] | 550 |
| COc1ccc(Cc2cnc(N)nc2N)cc1OC [Diaveridine] | 120 |
